# How the values were obtained:
# Details in all cases: 72 h
# [1] = test system: U2OS; assay: relative viability EC50 (midpoint between 100% and the lowest measured viability); higher = less toxic
# [2] = test system: Calu-3; assay: as above
# [3] = test system: HepG2; assay: as above
# [4] = test system: Caco-2; assay: as above
# [5] = test system: Vero E6; assay: as above
# [6] = test system: U2OS; assay: cell viability relative to DMSO; higher = less toxic
# [7] = test system: Calu-3; assay: as above
# [8] = test system: HepG2; assay: as above
# [9] = test system: Caco-2; assay: as above
# [10] = test system: Vero E6; assay: as above
# [11] = test system: U2OS; assay: drug sensitivity score (DSS) for viability; higher = more toxic; extreme values may be limits of the assay
# [12] = test system: Calu-3; assay: as above
# [13] = test system: HepG2; assay: as above
# [14] = test system: Caco-2; assay: as above
# [15] = test system: Vero E6; assay: as above
SMILES,relative viability EC50 [1] [µM],relative viability EC50 [2] [µM],relative viability EC50 [3] [µM],relative viability EC50 [4] [µM],relative viability EC50 [5] [µM],cell viability ([6]; 1 nM) [%],cell viability ([6]; 10 nM) [%],cell viability ([6]; 100 nM) [%],cell viability ([6]; 1000 nM) [%],cell viability ([6]; 10000 nM) [%],cell viability ([7]; 1 nM) [%],cell viability ([7]; 10 nM) [%],cell viability ([7]; 100 nM) [%],cell viability ([7]; 1000 nM) [%],cell viability ([7]; 10000 nM) [%],cell viability ([8]; 1 nM) [%],cell viability ([8]; 10 nM) [%],cell viability ([8]; 100 nM) [%],cell viability ([8]; 1000 nM) [%],cell viability ([8]; 10000 nM) [%],cell viability ([9]; 1 nM) [%],cell viability ([9]; 10 nM) [%],cell viability ([9]; 100 nM) [%],cell viability ([9]; 1000 nM) [%],cell viability ([9]; 10000 nM) [%],cell viability ([10]; 1 nM) [%],cell viability ([10]; 10 nM) [%],cell viability ([10]; 100 nM) [%],cell viability ([10]; 1000 nM) [%],cell viability ([10]; 10000 nM) [%],drug sensitivity score [11],drug sensitivity score [12],drug sensitivity score [13],drug sensitivity score [14],drug sensitivity score [15]
CCN(CC)CCOCCOC(=O)C1(c2ccccc2)CCCC1 [carbetapentane],> 10,> 10,> 10,> 10,> 10,99.4,102,99.5,101,95.5,90.6,93.8,104,97.6,100,104,103,97.2,97.5,94.4,97.9,94.3,94.3,105,91.1,103,93.9,108,104,97.6,0,0,0,0,0
CCCCCCCCCCCCCCCC(=O)OC[C@@H](NC(=O)C(Cl)Cl)[C@H](O)c1ccc([N+](=O)[O-])cc1 [chloramphenicol-palmitate],> 10,> 10,> 10,> 10,> 10,105,99.6,102,104,100,97.3,95.6,95.2,97,102,98.1,101,103,92.4,88.6,111,102,99,95.1,95.3,107,107,102,97.2,99.3,0,0,0.2,0,0
COc1ccc(C(Cl)=C(c2ccc(OC)cc2)c2ccc(OC)cc2)cc1 [chlorotrianisene],> 10,> 10,> 10,> 10,> 10,95.5,97.8,101,102,93.6,98.5,95.9,104,83.6,99.9,98.5,94.9,93.6,111,101,98.5,97.5,98,104,102,93.8,103,91.8,99.5,106,0,0,0,0,0
c1ccc(C2CC2)c(OCC2=NCCN2)c1 [cirazoline],> 10,> 10,> 10,> 10,> 10,94.2,95.7,99.5,97.6,98.1,108,97.2,99.3,107,98.6,95.5,97.6,94.8,107,110,97.1,95,102,90.4,113,93.7,97.2,95.8,106,107,0,0,0,0,0
O=P(O)(O)C(Cl)(Cl)P(=O)(O)O [clodronic-acid],> 10,> 10,> 10,> 10,> 10,99.4,102,105,101,103,94.3,97.1,96.5,96.1,109,99.2,96.6,98.6,101,102,98,103,96.3,100,100,108,103,97.7,101,99.1,0,0,0,0,0
Cc1cc(C(C#N)c2ccc(Cl)cc2)c(Cl)cc1NC(=O)c1cc(I)cc(I)c1O (stereo not given) [closantel],> 10,> 10,> 10,> 10,> 10,93.3,96.7,97.4,98.8,104,90.9,95.5,92.3,92.4,95.3,95,95.5,102,86.4,107,97.4,99.6,99.8,97.5,100,101,98.2,96.2,93.7,101,0,0,0,0,0
CC1CC(OC(=O)C(O)c2ccccc2)CC(C)(C)C1 (stereo not given) [cyclandelate],> 10,> 10,> 10,> 10,> 10,97.2,103,97.5,102,97.5,95.9,90.2,102,95.5,99,103,91.9,100,96.3,98.3,91.5,105,94.3,105,108,97.8,99.1,100,96.7,94.9,0,0,0,0,0
Nc1ccc(S(=O)(=O)c2ccc(N)cc2)cc1 [dapsone],> 10,> 10,> 10,> 10,> 10,99.3,97.1,95.8,96.2,100,104,98.6,90.4,106,101,112,107,93.2,106,96.6,106,95.6,104,100,91.7,98.5,106,105,106,100,0,0,0,0,0
Cc1oc(-c2ccccc2)nc1CCC(=O)c1ccc(CC2SC(=O)NC2=O)cc1 (stereo not given) [darglitazone],> 10,> 10,> 10,> 10,> 10,109,98.7,102,102,103,97.4,110,114,111,119,96.9,95,95.8,96.3,95.4,102,95.5,96.2,91.9,91.2,96,90.8,83.3,76,83.3,0,0,0,0,4.8
CC(C)Nc1cccnc1N1CCN(C(=O)c2cc3cc(NS(C)(=O)=O)ccc3[nH]2)CC1 [delavirdine],> 10,> 10,> 10,> 10,> 10,101,101,102,98.5,102,100,93,104,90.5,105,98.8,108,99.2,115,107,99.4,96.4,101,101,94.2,92.2,99,87.9,95.3,105,0,0,0,0,0
Clc1ccc2c(c1)CCc1cccnc1C2=C1CCNCC1 [desloratadine],> 10,> 10,> 10,> 10,> 10,100,98.9,97.3,104,95.6,99.9,100,110,104,106,113,90.7,97.2,110,93.1,91.2,93.5,94.7,90.2,102,104,102,104,106,99.9,0,0,0,0,0
Cc1onc(-c2c(Cl)cccc2Cl)c1C(=O)N[C@@H]1C(=O)N2[C@@H]1SC(C)(C)[C@@H]2C(=O)O [dicloxacillin],> 10,> 10,> 10,> 10,> 10,95.6,99.9,93.7,97.9,94.9,98.2,84.7,96,97.6,98.9,97.5,98.1,106,100,110,100,99.6,93.3,98.2,101,99.4,97.7,102,94.1,96.3,0,0,0,0,0
C[C@H]1O[C@@H](O[C@H]2[C@@H](O)C[C@H](O[C@H]3[C@@H](O)C[C@H](O[C@H]4CC[C@@]5(C)[C@H](CC[C@@H]6[C@@H]5C[C@@H](O)[C@]5(C)[C@@H](C7=CC(=O)OC7)CC[C@]65O)C4)O[C@@H]3C)O[C@@H]2C)C[C@H](O)[C@@H]1O [digoxin],0.182,0.449,0.177,0.114,0.031,97.3,96.1,82.7,4.6,4.8,101,102,96.4,26.5,12.8,107,105,72,16.4,8.7,97.7,99.5,65.7,21,20.3,95.1,94.9,5.8,1.2,1.3,20.1,14,18.9,18.9,30.2
C[N+]1(C)CCC(=C(c2ccccc2)c2ccccc2)CC1 [diphemanil],> 10,> 10,> 10,> 10,> 10,101,99.7,95.5,97.7,97.4,95.3,107,110,96.1,102,113,98.1,108,97.6,110,97.2,100,95.7,101,93.6,105,108,103,99.9,102,0,0,0,0,0

# From the supplement of paper PMC13380429
